Measurements from US20070093969A1, “Molecular nephrotoxicology modeling” (priority 2002, published 2007).

Legend:
[1] = test system: patients; details: human, in vivo; cited from earlier work
[2] = test system: kidney; details: rat; cited from earlier work
[3] = test system: rats; details: rat, in vivo; cited from earlier work
[4] = test system: rats; details: rat, in vivo; cited from earlier work; remark: listed apart in the source
[5] = test system: kidney tissue gene expression; details: rat, in vivo

## CC(C)(Oc1ccc(C2CC2(Cl)Cl)cc1)C(=O)O (stereo not drawn) [Ciprofibrate]
[1]
  plasma creatinine and urea levels: elevated

## O=C(O)c1cc(/N=N/c2ccc(O)c(C(=O)O)c2)ccc1O [Olsalazine]
[2]
  kidney findings: interstitial nephritis and tubular necrosis

## CC1CCC(NC(=O)N(CCCl)N=O)CC1 (stereo not drawn) [Semustine]
[3]
  renal injury: proximal tubule injury and papillary necrosis

## ClC(Cl)(Cl)Cl [carbon tetrachloride, Carbon tetrachloride]
[4]
  glutathione peroxidase activity: significant decrease
  kidney superoxide dismutase and catalase activities: Significant increases

## ClC(Cl)Cl [chloroform, Chloroform (CHCl3)]
[5]
  Tox Group Mean, GLGC Identifier 1143: 131.83
  Tox Group Mean, GLGC Identifier 1409: 298.20
  Tox Group Mean, GLGC Identifier 1509: 431.65
  Tox Group Mean, GLGC Identifier 1581: 87.66
  Tox Group Mean, GLGC Identifier 1644: 418.83
  Tox Group Mean, GLGC Identifier 1652: 476.16
  Tox Group Mean, GLGC Identifier 1653: 686.13
  Tox Group Mean, GLGC Identifier 1877: 444.75
  Tox Group Mean, GLGC Identifier 1929: 536.97
  Tox Group Mean, GLGC Identifier 1949: 57.75
  Tox Group Mean, GLGC Identifier 2059: 219.06
  Tox Group Mean, GLGC Identifier 2439: 102.63
  Tox Group Mean, GLGC Identifier 2912: 1436.37
  Tox Group Mean, GLGC Identifier 3015: 2837.91
  Tox Group Mean, GLGC Identifier 3091: 421.64
  Tox Group Mean, GLGC Identifier 3803: 975.63
  Tox Group Mean, GLGC Identifier 3875: 252.35
  Tox Group Mean, GLGC Identifier 4178: 444.39
  Tox Group Mean, GLGC Identifier 4462: 414.41
  Tox Group Mean, GLGC Identifier 4463: 43.16
  Tox Group Mean, GLGC Identifier 4473: 95.76
  Tox Group Mean, GLGC Identifier 4933: 743.88
  Tox Group Mean, GLGC Identifier 5369: 274.28
  Tox Group Mean, GLGC Identifier 6127: 41.36
  Tox Group Mean, GLGC Identifier 6343: 46.79
  Tox Group Mean, GLGC Identifier 6641: 233.86
  Tox Group Mean, GLGC Identifier 7216: 123.29
  Tox Group Mean, GLGC Identifier 7299: 334.53
  Tox Group Mean, GLGC Identifier 7505: 274.29
  Tox Group Mean, GLGC Identifier 7622: 88.74
  Tox Group Mean, GLGC Identifier 7634: 538.91
  Tox Group Mean, GLGC Identifier 7936: 93.98
  Tox Group Mean, GLGC Identifier 8721: 73.87
  Tox Group Mean, GLGC Identifier 8829: 505.66
  Tox Group Mean, GLGC Identifier 8927: 508.53
  Tox Group Mean, GLGC Identifier 8946: 112.12
  Tox Group Mean, GLGC Identifier 9116: 269.31
  Tox Group Mean, GLGC Identifier 9176: 288.61
  Tox Group Mean, GLGC Identifier 9191: 277.28
  Tox Group Mean, GLGC Identifier 10130: 117.70
  Tox Group Mean, GLGC Identifier 11761: 49.48
  Tox Group Mean, GLGC Identifier 11843: 61.43
  Tox Group Mean, GLGC Identifier 11953: 1079.47
  Tox Group Mean, GLGC Identifier 12129: 245.65
  Tox Group Mean, GLGC Identifier 13610: 226.14
  Tox Group Mean, GLGC Identifier 13646: 1169.38
  Tox Group Mean, GLGC Identifier 13727: 35.36
  Tox Group Mean, GLGC Identifier 14267: 1171.51
  Tox Group Mean, GLGC Identifier 15072: 42.04
  Tox Group Mean, GLGC Identifier 15836: 121.07
  Tox Group Mean, GLGC Identifier 15964: 583.51
  Tox Group Mean, GLGC Identifier 16468: 831.97
  Tox Group Mean, GLGC Identifier 16469: 991.10
  Tox Group Mean, GLGC Identifier 16756: 361.18
  Tox Group Mean, GLGC Identifier 16948: 145.85
  Tox Group Mean, GLGC Identifier 16958: 61.46
  Tox Group Mean, GLGC Identifier 17361: 50.93
  Tox Group Mean, GLGC Identifier 17516: 500.55
  Tox Group Mean, GLGC Identifier 17524: 799.10
  Tox Group Mean, GLGC Identifier 17541: 1464.81
  Tox Group Mean, GLGC Identifier 18509: 311.54
  Tox Group Mean, GLGC Identifier 19110: 84.32
  Tox Group Mean, GLGC Identifier 19144: 36.63
  Tox Group Mean, GLGC Identifier 19377: 155.74
  Tox Group Mean, GLGC Identifier 19679: 440.67
  Tox Group Mean, GLGC Identifier 19822: 994.53
  Tox Group Mean, GLGC Identifier 20000: 93.69
  Tox Group Mean, GLGC Identifier 20582: 347.72
  Tox Group Mean, GLGC Identifier 20708: 80.85
  Tox Group Mean, GLGC Identifier 20725: 621.86
  Tox Group Mean, GLGC Identifier 20741: 236.26
  Tox Group Mean, GLGC Identifier 21025: 233.83
  Tox Group Mean, GLGC Identifier 21060: 133.69
  Tox Group Mean, GLGC Identifier 21061: 86.99
  Tox Group Mean, GLGC Identifier 21088: 56.92
  Tox Group Mean, GLGC Identifier 21562: 265.87
  Tox Group Mean, GLGC Identifier 22490: 811.57
  Tox Group Mean, GLGC Identifier 22537: 145.19
  Tox Group Mean, GLGC Identifier 22648: 313.31
  Tox Group Mean, GLGC Identifier 22783: 473.86
  Tox Group Mean, GLGC Identifier 22855: 373.13
  Tox Group Mean, GLGC Identifier 22985: 83.55
  Tox Group Mean, GLGC Identifier 23033: 431.39
  Tox Group Mean, GLGC Identifier 23115: 278.57
  Tox Group Mean, GLGC Identifier 23282: 425.15
  Tox Group Mean, GLGC Identifier 23718: 65.41
  Tox Group Mean, GLGC Identifier 24234: 408.25
  Tox Group Mean, GLGC Identifier 24437: 56.38
  Tox Group Mean, GLGC Identifier 25168: 32.68
  Tox Group Mean, GLGC Identifier 25643: 187.37
  Tox Group Mean, GLGC Identifier 25777: 1173.74
  Tox Group Mean, GLGC Identifier 25862: 38.61
  Tox Group Mean, GLGC Identifier 25921: 47.30
  Tox Group Mean, GLGC Identifier 26183: 64.68
